# Assay results published in PMC11249646, “Small-Molecule Disruptors of the Interaction between Calcium- and Integrin-Binding Protein 1 and Integrin αIIbβ3 as Novel Antiplatelet Agents” (ACS Pharmacology & Translational Science, 2024).
# Biological target: T1, CIB1 and αIIb interaction (CIB1-GST : F-αIIb peptide) (Homo sapiens, UniProt Q99828)
# T1 construct: made in house; host or cells: BL-21 plus RIL cells (E. coli)
# T1 sequence (Q99828 1-191): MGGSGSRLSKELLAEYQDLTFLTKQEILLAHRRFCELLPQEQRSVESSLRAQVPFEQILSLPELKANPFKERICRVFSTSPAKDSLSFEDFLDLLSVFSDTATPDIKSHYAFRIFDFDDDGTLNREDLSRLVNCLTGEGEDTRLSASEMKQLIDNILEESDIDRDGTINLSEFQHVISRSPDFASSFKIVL
# Experiment: FP assay, 1536-well qHTS format (primary and confirmatory screen)
# Format: binding
# Conditions: Table S3, confirmatory screen, YES/NO call
row,Confirm? (confirmatory screen),SMILES
1,YES,COc1ccc2[nH]c([S+]([O-])Cc3ncc(C)c(OC)c3C)nc2c1 (stereo not shown) [NCGC00016925-10]

# Same assay, conditions: Table S3, confirmatory screen, qHTS curve class; a negative sign marks inhibitory curves
row,SMILES,Curve Class (confirmatory screen)
1,C[n+]1cc2c3c(ccc2c2ccc4cc5c(cc4c21)OCO5)OCO3.[Cl-] [NCGC00015959-09],4
2,CCCCCCCCCCCCCCCC[N+](C)(C)CCN(Cc1ccc(OC)cc1)c1ncccn1.[Br-] [NCGC00016507-05],4

# More lines, now with the values ahead:
row,Curve Class (confirmatory screen),SMILES
1,4,Nc1ccc(O)c(C(=O)O)c1 [NCGC00016344-07]
2,-1.2,COc1ccc2[nH]c([S+]([O-])Cc3ncc(C)c(OC)c3C)nc2c1 (stereo not shown) [NCGC00016925-10]
3,4,CN1CCc2cccc3c2[C@H]1Cc1ccc(O)c(O)c1-3 [NCGC00025349-05]

# Same assay, conditions: Table S3, confirmatory screen; negative = inhibition
row,SMILES,Efficacy (%) (confirmatory screen)
1,C[n+]1cc2c3c(ccc2c2ccc4cc5c(cc4c21)OCO5)OCO3.[Cl-] [NCGC00015959-09],0
2,CCCCCCCCCCCCCCCC[N+](C)(C)CCN(Cc1ccc(OC)cc1)c1ncccn1.[Br-] [NCGC00016507-05],-36

# Continued, values first:
row,Efficacy (%) (confirmatory screen),SMILES
1,-27,Nc1ccc(O)c(C(=O)O)c1 [NCGC00016344-07]
2,-58,COc1ccc2[nH]c([S+]([O-])Cc3ncc(C)c(OC)c3C)nc2c1 (stereo not shown) [NCGC00016925-10]
3,-17,CN1CCc2cccc3c2[C@H]1Cc1ccc(O)c(O)c1-3 [NCGC00025349-05]

# Same assay, conditions: Table S3, confirmatory screen; read-out: IC50 [μM] (confirmatory screen)
row,IC50 [µM],SMILES
1,28.2,COc1ccc2[nH]c([S+]([O-])Cc3ncc(C)c(OC)c3C)nc2c1 (stereo not shown) [NCGC00016925-10]

# Same assay, conditions: qHTS primary screen hits, Table S2; negative = inhibition
row,SMILES,Efficacy (%)
1,C[n+]1cc2c3c(ccc2c2ccc4cc5c(cc4c21)OCO5)OCO3.[Cl-] [NCGC00015959-09],-124
2,CCCCCCCCCCCCCCCC[N+](C)(C)CCN(Cc1ccc(OC)cc1)c1ncccn1.[Br-] [NCGC00016507-05],-71

# Next, values leading:
row,Efficacy (%),SMILES
1,-58,Nc1ccc(O)c(C(=O)O)c1 [NCGC00016344-07]
2,-35,COc1ccc2[nH]c([S+]([O-])Cc3ncc(C)c(OC)c3C)nc2c1 (stereo not shown) [NCGC00016925-10]
3,-58,CN1CCc2cccc3c2[C@H]1Cc1ccc(O)c(O)c1-3 [NCGC00025349-05]

# Same assay, conditions: qHTS primary screen hits, Table S2; negative sign = inhibitory curve
row,SMILES,Curve Class
1,C[n+]1cc2c3c(ccc2c2ccc4cc5c(cc4c21)OCO5)OCO3.[Cl-] [NCGC00015959-09],-1.1
2,CCCCCCCCCCCCCCCC[N+](C)(C)CCN(Cc1ccc(OC)cc1)c1ncccn1.[Br-] [NCGC00016507-05],-2.2

# Same assay, conditions: qHTS primary screen hits, Table S2; negative sign = inhibitory curve; several classes where COUNT > 1
row,Curve Class,SMILES
1,-2.2,Nc1ccc(O)c(C(=O)O)c1 [NCGC00016344-07]
2,-2.2,COc1ccc2[nH]c([S+]([O-])Cc3ncc(C)c(OC)c3C)nc2c1 (stereo not shown) [NCGC00016925-10]
3,-2.4,CN1CCc2cccc3c2[C@H]1Cc1ccc(O)c(O)c1-3 [NCGC00025349-05]

# Same assay, conditions: qHTS primary screen hits, Table S2; read-out: IC50
row,SMILES,IC50 [µM]
1,C[n+]1cc2c3c(ccc2c2ccc4cc5c(cc4c21)OCO5)OCO3.[Cl-] [NCGC00015959-09],14.1
2,CCCCCCCCCCCCCCCC[N+](C)(C)CCN(Cc1ccc(OC)cc1)c1ncccn1.[Br-] [NCGC00016507-05],79.4

# Results, then the compound that gave them:
row,IC50 [µM],SMILES
1,10.8,COc1ccc2[nH]c([S+]([O-])Cc3ncc(C)c(OC)c3C)nc2c1 (stereo not shown) [NCGC00016925-10]
2,12.6,CN1CCc2cccc3c2[C@H]1Cc1ccc(O)c(O)c1-3 [NCGC00025349-05]

# Biological target: T2, GST-CIB1 : F-scrambled peptide (Homo sapiens, UniProt Q99828)
# T2 construct: made in house; host or cells: BL-21 plus RIL cells (E. coli)
# T2 sequence (Q99828 1-191): T1 sequence (Q99828 1-191)
# Experiment: FP scrambled-peptide counter screen, 1536-well format
# Format: binding
# Conditions: Table S3, counterscreen, qHTS curve class; a negative sign marks inhibitory curves
row,SMILES,Curve Class (counterscreen)
1,C[n+]1cc2c3c(ccc2c2ccc4cc5c(cc4c21)OCO5)OCO3.[Cl-] [NCGC00015959-09],4
2,CCCCCCCCCCCCCCCC[N+](C)(C)CCN(Cc1ccc(OC)cc1)c1ncccn1.[Br-] [NCGC00016507-05],3

# Second part, the compound after the results:
row,Curve Class (counterscreen),SMILES
1,-2.2,COc1ccc2[nH]c([S+]([O-])Cc3ncc(C)c(OC)c3C)nc2c1 (stereo not shown) [NCGC00016925-10]
2,4,CN1CCc2cccc3c2[C@H]1Cc1ccc(O)c(O)c1-3 [NCGC00025349-05]

# Same assay, conditions: Table S3, counterscreen; negative = inhibition
row,SMILES,Efficacy (%) (counterscreen)
1,C[n+]1cc2c3c(ccc2c2ccc4cc5c(cc4c21)OCO5)OCO3.[Cl-] [NCGC00015959-09],0
2,CCCCCCCCCCCCCCCC[N+](C)(C)CCN(Cc1ccc(OC)cc1)c1ncccn1.[Br-] [NCGC00016507-05],100

# Next, values leading:
row,Efficacy (%) (counterscreen),SMILES
1,154,Nc1ccc(O)c(C(=O)O)c1 [NCGC00016344-07]
2,-57,COc1ccc2[nH]c([S+]([O-])Cc3ncc(C)c(OC)c3C)nc2c1 (stereo not shown) [NCGC00016925-10]
3,-34,CN1CCc2cccc3c2[C@H]1Cc1ccc(O)c(O)c1-3 [NCGC00025349-05]

# Same assay, conditions: Table S3, counterscreen; read-out: IC50 [μM] (counterscreen)
row,IC50 [µM],SMILES
1,89.1,CCCCCCCCCCCCCCCC[N+](C)(C)CCN(Cc1ccc(OC)cc1)c1ncccn1.[Br-] [NCGC00016507-05]
2,35.5,COc1ccc2[nH]c([S+]([O-])Cc3ncc(C)c(OC)c3C)nc2c1 (stereo not shown) [NCGC00016925-10]
